Laboratory results published in patent US8242240B2, “Anti-inflammatory compounds and uses thereof” (Yale University, priority 2000, dated 2012).

How the values were obtained:
[1] = tested on: NF-κB; assay: EMSA of nuclear extracts from TNFα-treated HeLa cells; type: cell-based, human; details: peptide 50, 100 or 200 μM 3 h, TNFα 10 ng/ml 15 min
[2] = tested on: NF-κB; assay: pBIIX-luciferase NF-κB reporter assay in HeLa cells; type: cell-based, human; details: for basal NF-κB activity (luciferase reporter): no TNFα; for TNFα-induced NF-κB activation (luciferase reporter): peptide 100 and 200 μM 2 h, TNFα 10 ng/ml 4 h
Experimental: (§1) (A) Sequences of wild-type (SEQ ID NO:18) and mutant (SEQ ID NO:19 forms of IKKβ NBD peptide. (B) GST-pull-down analysis was performed using either GST-NEMO-in vitro translated IKKβ (upper panel) or GST-IKKβ-(644-756)-in vitro translated NEMO (lower panel). The assay was performed in the absence (no peptide) or presence of increasing concentrations ([…], 500 or 1000 μM) of either mutant (MUT) (SEQ ID NO:19) or wild-type (WT) NBD (SEQ ID NO:18). (C) HeLa cells were incubated with either peptide (200 μM) for the times indicated. Following lysis, the IKK complex was immunoprecipitated using anti-NEMO and the resulting immunoblot probed with anti-IKKβ. (D) Gel image showing anti-NEMO immunoprecipitation. (E) Gel image showing anti-FLAG immunoblot. (F) HeLa cells were incubated for three hours with increasing concentrations: 50, 100 or 200 μM) of each peptide followed by treatment for fifteen minutes with TNFα (10 ng/ml) as indicated (+). Following lysis, nuclear extracts were made and 10 μg of protein from each sample was used for EMSA using a specific [^32P]-labeled κB-site probe. (G) Gel image showing anti-Phospho-C-Jun immunoblot and anti-β-Actin immunoblot. (H) HeLa cells were transfected for forty-eight hours with pBIIX-luciferase then incubated for two hours in the absence (control) or presence of mutant or wild-type NBD peptide (100 and 200 μM of each). Subsequently the cells were either treated with TNFα (10 ng/ml) as indicated (toe panel) or left untreated (bottom panel) for a further four hours after which NF-κB activation was measured by luciferase assay.
For transfection studies, HeLa and COS cells were seeded into either twenty-four well (1×10^5 cells/well) or six well (5×10^5 cells/well) plates and grown for twenty-four hours before transfection of DNA with FUGENE6(Roche) according to the manufacturer's protocol. Cells in twenty-four well and six well trays received a total of 1 μg or 2 μg of DNA respectively. After forty-eight hours cells were lysed with TNT (200 mM NaCl, 20 mM Tris-pH 8.0, 1% Triton-100) and the lysate were used for either immunoprecipitation or luciferase assay (Primage Luciferase Assay System).
The effects of the NBD peptides on signal-induced activation of NF-κB were investigated next. Analysis using electrophoretic mobility shift assay. […] Further, after transfecting HeLa cells with the pBIIX-luciferase reporter, cells were preincubated with wild-type or mutant peptides, treated with TNFα and NF-κB activation measured by the luciferase reporter assay. As shown in FIG. 5H (top panel), the wild-type NBD peptide inhibited TNFα-induced NF-κB activation whereas the mutant had no effect. […]

[3] = target: T1, IKKβ-NEMO interaction (Homo sapiens, UniProt Q9Y6K9); assay: In vitro GST pull-down of IKKβ/NEMO in the presence of NBD peptides; type: binding; details: peptide 125, 500 or 1000 μM
T1 construct: bacterially expressed version of full length NEMO fused at its NH2-terminus to glutathione S-transferase; made in house; host or cells: bacteria (GST-NEMO); in vitro translation (IKKβ)
T1 sequence (Q9Y6K9 whole entry, the tested form may be a part): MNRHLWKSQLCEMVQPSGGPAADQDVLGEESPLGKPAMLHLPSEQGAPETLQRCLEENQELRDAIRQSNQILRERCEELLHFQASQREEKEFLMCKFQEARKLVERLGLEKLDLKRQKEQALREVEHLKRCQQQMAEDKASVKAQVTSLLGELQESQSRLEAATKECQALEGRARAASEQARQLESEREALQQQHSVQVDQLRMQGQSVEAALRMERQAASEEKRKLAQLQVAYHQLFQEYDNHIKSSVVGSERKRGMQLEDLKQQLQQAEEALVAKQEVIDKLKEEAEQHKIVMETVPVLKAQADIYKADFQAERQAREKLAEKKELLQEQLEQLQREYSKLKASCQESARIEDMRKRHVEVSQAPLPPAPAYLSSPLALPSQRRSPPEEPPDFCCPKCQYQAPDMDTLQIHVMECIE
Experimental: as §1
The sequences of the two NBD peptides used in t its study were [[…]][…] (wild-type) (SEQ ID NO: 18) and [[…]][…] (mutant) (SEQ ID NO: 19; FIG. 5A). The antennapedia homeodomain sequence (Derossi et al., (1994) J. Biol. Chem. 269, 10444-10450; U.S. Pat. No. 5,888,762; U.S. Pat. No. 6,015,787; U.S. Pat. No. 6,080,724) is bracketed and the positions of the W to A mutations are underlined. Both peptides were dissolved in DMSO to a stock concentration of 20 mM. For all experiments DMSO alone controls were no different from no peptide controls.
The mutant was identical except that the tryptophan residues (W739 and W741) in the NBD were mutated to alanine. […] To test the ability of the NBD peptides to enter cells and inhibit the IKKβ-NEMO interaction, HeLa cells were incubated with the peptides for different time periods and immunoprecipitated the IKK complex using anti-NEMO. In agreement with the in vitro data (FIG. 5B), wild-type but not mutant disrupted the formation of the endogenous IKK complex (FIG. 5C).

[4] = tested on: Mouse bone marrow cells; assay: RANKL-induced osteoclast differentiation of bone marrow cells; type: cell-based; details: M-CSF 20 ng/ml + RANKL 100 ng/ml, six days, peptide 6.25, 12.5 and 25 mM
Source text: Osteoporosis is a severely debilitating disease characterized by an extensive loss of bone mass that is mediated by osteoclast-dependent bone resorbtion (Suda et al., (1992) Endocr. Rev. 13, 66-80; Suda et al., (1999) Endocr. Rev. 20, 345-357). It is therefore possible that selective inhibition of NF-κB activation in osteoclast precursor cells would prevent osteoclast differentiation and provide the basis for therapeutically effective drugs for the treatment of osteoporosis. Therefore the effect of the NBD peptides on osteoclast differentiation was tested using a previously described in vitro model (Jimi et al., (1999) Exp. Cell Res. 247, 84-93). Mouse bone marrow cells plated into 48-well tissue culture trays were incubated with human macrophage-colony stimulating factor (M-CSF; 20 ng/ml) and human RANKL (100 ng/ml) for six days in the absence or presence of various concentrations ([…]) of either mutant or wild-type NBD peptide. The cells were then fixed and stained for the osteoclast phenotypic marker tartrate-resistant acid phosphatase (TRAP) and TRAP-positive mutinucleated cells containing more than three nuclei were counted as osteoclasts. Triplicate samples were counted and results were calculated as means±SD.

[5] = target: T2, endogenous IKK complex (Homo sapiens, UniProt Q9Y6K9); assay: Anti-NEMO immunoprecipitation of the IKK complex from peptide-treated HeLa cells; type: cell-based; details: peptide 200 μM, anti-NEMO IP, anti-IKKβ blot
T2 construct: wild-type but not mutant disrupted the formation of the endogenous IKK complex; endogenous in cells; host or cells: HeLa
T2 sequence (Q9Y6K9 whole entry, one chain of several): as the sequence (Q9Y6K9 whole entry, the tested form may be a part) above
Experimental: as §1, with “(H) HeLa cells were transfected for forty-eight hours with pBIIX-luciferase then incubated for two hours in the absence (control) or presence of mutant or wild-type NBD peptide (100 and 200 μM of each).” left out, “assay. […]” for “assay.”

| inhibition of in vitro pull-down of [35S]-labeled IKKβ by GST-NEMO [3] | inhibition of in vitro pull-down of [35S]-labeled NEMO by GST-IKKβ-(644-756) [3] | disruption of the formation of the endogenous IKK complex [5] | Substance | inhibition of TNFα-induced activation and nuclear translocation of NF-κB (EMSA) [1] | basal NF-κB activity (luciferase reporter) ([2]; listed as cell-permeable NBD peptide) | basal NF-κB activity (luciferase reporter) ([2]; listed as wild-type peptide) | TNFα-induced NF-κB activation (luciferase reporter) [2] | inhibition of osteoclast differentiation (TRAP-positive multinucleated cells) ([4]; listed as wild type) | inhibition of osteoclast differentiation (TRAP-positive multinucleated cells) ([4]; listed as wild-type) | inhibition of osteoclast differentiation (TRAP-positive multinucleated cells) [4] |
| --- | --- | --- | --- | --- | --- | --- | --- | --- | --- | --- |
| dose-dependently inhibited | dose-dependently inhibited | disrupted | [DRQIKIWFQNRRMKWKK]TALDWSWLQTE (DRQIKIWFQNRRMKWKKTALDWSWLQTE; Description of Unknown: Unknown wildtype NBD peptide) [wild-type NBD peptide] | inhibited | modest increase | enhanced | inhibited | dose-dependently inhibited | dose dependent inhibition | – |
| not | not | not | [DRQIKIWFQNRRMKWKK]TALDASALQTE (DRQIKIWFQNRRMKWKKTALDASALQTE; Description of Artificial Sequence: Synthetic Mutant NBD peptide) [identical to wild-type NBD peptide except W739 and W741 mutated to alanine, reference compound] | – | – | – | no effect | – | – | not |
